Patent US9066938B2, “GPBP-1 inhibition and its therapeutic use” (Fibrostatin S.L., priority 2012, dated 2015)
Where a name gives a salt, the structure may show the parent alone.

Columns and labels:
[1] = system: cell cycle-related genes in A549 cells; assay: Cell Cycle RT2 Profiler PCR Array in A549 cells; format: cell-based, human; conditions: doxorubicin 1 μM or T12 50 μM, 24 h
Procedure: FIG. 6. T12 and doxorubicin activate cell cycle-related genes in a similar fashion. A549 cells were treated doxorubicin (1 μM) or T12 (50 μM) for 24 h. Total RNA was purified, reverse-transcribed and subjected to Cell Cycle RT^2 Profiler PCR Array. A, shown are logarithmic scatter plots of relative mRNA levels of treated vs untreated cells. […] B, shown are bar plots of the relative expression (RQ) of the over-expressed genes indicated in A. Results are shown in fold expression respect to untreated cells.
RNA was purified from cells using the Ilustra RNAspin Mini (GE Healthcare) and the cDNA was prepared using RT^2 First Strand™ cDNA kit (Qiagen). The cDNA from treated or untreated cells was used to screen the Cell Cycle RT^2 Profiler™ PCR Array for human (PAHS-020Z, Qiagen), following manufacturer's procedures (Qiagen). qPCR was performed using RT^2 SYBR® Green ROX™ qPCR Mastermix (Qiagen) and the StepOnePlus™ Real-Time PCR System (Applied Biosystems). qPCR data were analyzed using manufacturer software.

[2] = system: A549 cells; assay: Migration assay in modified Boyden chambers; format: cell-based, human; conditions: 16 h
Procedure: FIG. 8. T12 inhibits cancer cell migration. A modified Boyden chamber was used to measure migration as described in Methods and Experimental Design. Doxorubicin was used at 1 μM and T12 at 50 μM.
Migration assays were performed using modified Boyden chambers (Transwell inserts, 6.5 mm diameter; Corning). Inserts containing polycarbonate membranes with 8 μm pores were placed into the lower chambers containing 400 μl media (DMEM:F-12 supplemented with 10% FBS, 1% penicillin-streptomycin and 2 mM glutamine). Serum-starved A549 cells were removed from culture dishes with Hanks' balanced salt solution containing 0.5% trypsin and 0.2% EDTA (Sigma), washed and suspended in media without serum (DMEM:F-12, 1% penicillin-streptomycin and 2 mM glutamine) at 10^6 cells/mL. Two-hundred fifty thousand (250,000) cells in 250 μL media without serum were added to the top of each migration chamber and allowed to migrate to the underside of the porous membrane for 16 h. T12 and doxorubicin were present in the media of both top and bottom compartments throughout the assay. […] The detached cells were labeled with Calcein AM Fluorescent Dye (4 μg/ml) for 90 min at 37° C. and the fluorescence was measured at 494/517 nm (Abs/Em).

[3] = system: A549 cells (CSC/SP and CTAC/MP compartments); assay: Doxorubicin content of A549 cells by flow cytometry; format: cell-based, human; conditions: doxorubicin 1 μM plus T12 50 μM
Procedure: FIG. 10. T12 enhances doxorubicin accumulation, preferentially in CSC/SP cells. A549 cultures were untreated (control) or treated with doxorubicin (1 μM) and/or T12 (50 μM). A, doxorubicin content was measured by flow cytometry using the PE channel. Represented are fluorescence intensity values. The increased amount of doxorubicin is evidenced by the rightwards displacement of the fluorescence peak. B, CSC/SP and CTAC/MP compartments were identified as in FIG. 9 and the doxorubicin content of cells was determined as in A.
A549 cells were suspended at 10^6 cells/mL in culture medium containing 10 mM Hepes (previously warmed at 37° C.). Hoechst 33342 was added at 5 μg/mL and cells incubated in a 37° C. bath with shaking for 90 min in the dark. Before incubation (and after staining) an aliquot of 1 mL was taken and verapamil (50 μM) and fumitremorgin C (10 μM) added. Cells were centrifuged at 300×g for 5 min at 4° C. and suspended in cold medium with 10 mM Hepes. Cells were kept at 4° C. until analysis. Analysis of Hoechst 33342 efflux was assessed using a Flow Cytometer with incident 350 nm ultraviolet light. The resulting fluorescence was measured at two wavelengths using 424/44 BP and 675 LP filters that allow detection of Hoechst blue and red, respectively. […] Doxorubicin content in either population was estimated with incident 488 nm blue light and 585/40 filter. […]

[4] = system: JLSM cells; assay: Cell viability of JLSM primary cultures (lung epidermoid carcinoma); format: cell-based, human; conditions: 36 h
Procedure: FIG. 14. T12 sharply reduce JLSM cell viability. A and B, JLSM cells were seeded (10.000 cells per cm^2) on collagen-I coated 96-well culture plate. Cells were settled for 4 h and subjected to the indicated treatments and cellular viability assayed after 36 h. Control bars represent cells without T12 or […]. JLSM cells were obtained from a human lung epidermoid carcinoma biopsy following standard procedures. […] Subsequently, explants were further incubated with 1 mL per well of serum-free B-ALITM air-liquid interface medium from CloneticsTM (B-ALI medium). When cells started to grow, explants were removed and cells passed to a collagen I coated flask with fresh medium. Cultures were kept in a humidified 37° C. incubator with 5% (v/v) CO2 and 95% (v/v) air. Cytotoxicity assays were performed with alamarBlue® reagent (Invitrogen) according to manufacturer's instructions. A549 cells were seeded on 96-well culture plates (7,500 cells/well) and allowed to settle during 4 h. Then, cells were cultured with individual peptidomimetics at concentrations ranging from 0 to 50 μM, in presence of doxorubicin at concentrations ranging from 0 to 10 μM for 36 h. […] Fluorescence was measured using 560EX nm/590EM nm filter settings with a SpectraMax […] […] Blank wells containing media were used to determine background fluorescence.

[5] = system: A549 cells; assay: T12 LC50 in A549 cells cultured without serum to expand the CSC/SP compartment; format: cell-based; conditions: Homo sapiens
Procedure: FIG. 16. GPBP is over-expressed in A549 cells grown in B-ALI media that allows CSC/SP expansion. Bars represent the relative expression of the indicated genes in A549 cells grown with the indicated culture medium during the indicated times. A549 cells grown in DMEM: Ham's F12 medium supplemented with 2 mM L-glutamine and 10% fetal bovine serum (day 0) were used as reference.
Chemoresistance is widely accepted to depend on epigenetic changes occurring at the CSC/SP compartment (Alberts et al. 2007). Accordingly GPBP-mediated doxorubicin resistance is expected to occur on CSC/SP compartment. To test this we cultured A549 cells in the absence of serum using culture conditions known to expand CSC/SP compartment.

[6] = Synergism of T12 with paclitaxel (no details given); conditions: T12 plus paclitaxel
[7] = system: GPBP expression in A549 cells; assay: GPBP expression in A549 cells after treatment; format: cell-based, human
Procedure: A549 cells treated for 4 weeks with 1 μM doxorubicin (A549-DR). Fifty μg of cellular lysates of A549 and A549-DR cells were analyzed by Western blot to assess the levels of GPBP using GPBP-specific mAb N27. Tubulin was stained with specific antibodies and used as loading control.
This was assessed by selecting A549 cells with doxorubicin and analyzed GPBP expression by Western blot (FIG. 15).

Structure (SMILES)	expression of CDKN1A (p21), GADD45A, MDM2 and SERTAD1 [1]	cell migration of A549 cells, T12 with additional doxorubicin ([2]; T12 50 μM plus doxorubicin 1 μM)	cell migration of A549 cells ([2]; T12 50 μM)	doxorubicin content of cells versus doxorubicin only [3]	biological activity on JLSM primary cultures, single compound [4]	CC50 ([5]; A549, A549 comparison culture (CSC/SP not expanded)) [µM]	CC50 ([5]; A549, A549 cultured in the absence of serum, expanded CSC/SP compartment) [µM]	synergism of T12 with paclitaxel [6]	GPBP expression in A549 cells in response to treatment [7]
COc1ccc(-c2ccc(-c3cccc(C)c3)c(C)c2)c(CCC(=O)O)c1 [T12, 3-[4″-methoxy-3,2′-dimethyl-(1,1′;4′,1″)terphenyl-2″-yl] propionic acid]	up-regulated	virtually arrested	sharply inhibited	higher doxorubicin content	highly sensitive	125	15	synergistic	no evidence for increased expression of GPBP
COc1cccc2c1C(=O)c1c(O)c3c(c(O)c1C2=O)C[C@@](O)(C(=O)CO)C[C@@H]3O[C@H]1C[C@H](N)[C@H](O)[C@H](C)O1 [doxorubicin, doxorubicin hydrochloride, reference compound]	up-regulated				virtually resistant				increased GPBP cell expression
